Measurements from ChEMBL document CHEMBL5154839, “Discovery of a selective and covalent small-molecule inhibitor of BFL-1 protein that induces robust apoptosis in cancer cells” (Eur J Med Chem, 2022).
Calls of active or inactive are those of the source. The calls are words filed in the database; no cut-off is given here.

Experiments:
[1] = (§1) Displacement of fluorescein tagged BID BH3 peptide from His-tagged recombinant BFL-1 (1 to 151 residues) C55A mutant (unknown origin) expressed in Escherichia coli BL21 (DE3) assessed as inhibition constant incubated for 24 hrs by fluorescence polarization-based competitive binding assay; parameters: species or system Homo sapiens
[2] = system: Kasumi 1; assay: Upregulation of BFL-1 protein expression in human Kasumi 1 cells by Western blotting analysis; assay type: functional, cell-based
[3] = system: MM1.S; assay: Upregulation of BFL-1protein expression in human MM1.S cells by Western blotting analysis; assay type: functional, cell-based
[4] = system: U-937; assay: Growth inhibition of human U-937 cells incubated for 4 days by WST assay; assay type: functional, cell-based; settings: U-937, 96 h
[5] = molecular target: T1, Bromodomain-containing protein 2 (Homo sapiens, UniProt P25440); assay: Binding affinity to recombinant human BRD2 BD1 (72-205 residues) assessed as inhibition constant by fluorescence polarization assay
T1 sequence (P25440 whole entry, the tested form may be a part): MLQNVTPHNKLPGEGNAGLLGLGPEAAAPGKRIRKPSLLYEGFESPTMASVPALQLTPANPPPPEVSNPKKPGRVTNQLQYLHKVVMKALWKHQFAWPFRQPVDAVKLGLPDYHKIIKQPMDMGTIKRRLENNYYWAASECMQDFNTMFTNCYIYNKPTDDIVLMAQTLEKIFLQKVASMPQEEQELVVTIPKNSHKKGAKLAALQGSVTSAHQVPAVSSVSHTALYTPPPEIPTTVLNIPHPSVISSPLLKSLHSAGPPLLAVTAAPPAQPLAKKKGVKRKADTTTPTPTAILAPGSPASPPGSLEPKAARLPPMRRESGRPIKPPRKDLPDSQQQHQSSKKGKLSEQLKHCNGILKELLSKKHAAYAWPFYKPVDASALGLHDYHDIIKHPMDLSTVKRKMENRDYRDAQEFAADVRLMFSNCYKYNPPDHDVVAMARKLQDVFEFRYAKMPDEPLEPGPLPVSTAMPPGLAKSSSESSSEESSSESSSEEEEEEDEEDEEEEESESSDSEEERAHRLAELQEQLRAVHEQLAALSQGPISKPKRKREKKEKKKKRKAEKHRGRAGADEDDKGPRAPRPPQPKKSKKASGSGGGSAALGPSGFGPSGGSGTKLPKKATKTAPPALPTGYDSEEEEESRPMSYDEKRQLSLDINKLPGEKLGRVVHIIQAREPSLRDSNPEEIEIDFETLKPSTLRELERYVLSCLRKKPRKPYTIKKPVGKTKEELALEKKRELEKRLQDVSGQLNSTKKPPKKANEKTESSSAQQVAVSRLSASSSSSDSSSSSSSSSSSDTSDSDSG

[6] = Displacement of FAM- labeled PDI peptide from MDM4 C17S mutant (14 to 111 residues) (unknown origin) expressed in Escherichia coli BL21 (DE3) assessed as inhibition constant incubated for 1.5 hrs by fluorescence polarization-based competitive binding assay; parameters: species or system Homo sapiens
[7] = system: Raji; assay: Growth inhibition of human Raji cells incubated for 4 days by WST assay; assay type: functional, cell-based; settings: 96 h
[8] = system: MV4-11; assay: Upregulation of BFL-1protein expression in human MV4-11 cells by Western blotting analysis; assay type: functional, cell-based
[9] = molecular target: Transcriptional enhancer factor TEF-3 (Homo sapiens, UniProt Q15561); assay: Displacement of FAM- labeled YAP1 peptide from TEAD4 (217 to 434 residues) (unknown origin) expressed in Escherichia coli BL21 (DE3) assessed as inhibition constant incubated for 1.5 hrs by fluorescence polarization-based competitive binding assay
Transcriptional enhancer factor TEF-3, sequence (Q15561 whole entry, the tested form may be a part): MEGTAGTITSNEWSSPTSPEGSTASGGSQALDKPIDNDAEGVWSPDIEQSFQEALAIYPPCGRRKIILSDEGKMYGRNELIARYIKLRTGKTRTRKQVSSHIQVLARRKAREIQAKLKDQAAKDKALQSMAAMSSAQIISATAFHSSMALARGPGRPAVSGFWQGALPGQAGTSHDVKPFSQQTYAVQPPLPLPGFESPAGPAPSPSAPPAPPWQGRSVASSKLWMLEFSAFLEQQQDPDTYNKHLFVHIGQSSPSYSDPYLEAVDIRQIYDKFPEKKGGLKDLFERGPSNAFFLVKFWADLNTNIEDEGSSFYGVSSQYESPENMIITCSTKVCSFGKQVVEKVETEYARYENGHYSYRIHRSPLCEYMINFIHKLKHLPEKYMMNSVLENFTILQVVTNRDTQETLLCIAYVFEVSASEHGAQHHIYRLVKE

[10] = system: U-937; assay: Induction of apoptosis in human U-937 cells assessed as phosphatidylserine level measured after 4 hrs by Annexin V staining based flow cytometry analysis; assay type: functional, cell-based; settings: DDE = dose-dependent effect
[11] = species: Homo sapiens; assay: as §1, with “assessed as fold decrease in inhibition constant” for “assessed as inhibition constant”, “binding assay relative to wild type” for “binding assay”
[12] = system: U-937; assay: Induction of apoptosis in human U-937 cells assessed as early apoptotic cells at 10 uM measured after 4 hrs by Annexin PI staining based flow cytometry method (reference value: 1.95 %); assay type: functional
[13] = molecular target: T2, BCL2A11/BBC3 (Homo sapiens) (UniProt Q16548+Q9BXH1); assay: Inhibition of human BFL-1/PUMA protein-protein interaction in human Kasumi 1 cells assessed as increase in BFL-1 protein level at 20 to 80 uM measured after 5 hrs by co-immunoprecipitation assay; assay type: cell-based; settings: dose 20-80 µM
T2 sequence (Q16548 whole entry, looked up): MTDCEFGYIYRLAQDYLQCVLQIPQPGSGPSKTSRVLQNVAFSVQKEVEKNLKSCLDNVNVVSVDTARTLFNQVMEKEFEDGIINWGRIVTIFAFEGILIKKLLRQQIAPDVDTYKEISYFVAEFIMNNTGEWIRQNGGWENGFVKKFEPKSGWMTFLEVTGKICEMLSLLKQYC
T2 sequence (Q9BXH1 whole entry, looked up): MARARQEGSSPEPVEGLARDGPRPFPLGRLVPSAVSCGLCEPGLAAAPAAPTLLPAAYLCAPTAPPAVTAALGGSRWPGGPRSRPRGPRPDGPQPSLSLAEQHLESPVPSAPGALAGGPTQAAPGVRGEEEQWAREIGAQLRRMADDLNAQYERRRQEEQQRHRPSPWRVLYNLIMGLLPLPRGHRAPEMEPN

[14] = system: K562; assay: Growth inhibition of human K562 cells incubated for 4 days by WST assay; assay type: functional, cell-based; settings: K562, 96 h
[15] = system: K562; assay: Upregulation of BFL-1protein expression in human K562 cells by Western blotting analysis; assay type: functional, cell-based
[16] = system: U-937; assay: Induction of apoptosis in human U-937 cells assessed as late apoptotic cells at 20 uM measured after 4 hrs by Annexin PI staining based flow cytometry method (reference value: 1.62 %); assay type: functional
[17] = system: U-937; assay: Induction of apoptosis in human U-937 cells assessed as increase in BFL-1 protein expression after 24 hrs by Western blot analysis; assay type: functional, cell-based; settings: DDE = dose-dependent effect
[18] = molecular target: Bcl-2-related protein A1 (Homo sapiens) (UniProt Q16548); assay: Binding affinity to His-tagged recombinant BFL-1 (1 to 151 residues) (unknown origin) expressed in Escherichia coli BL21 (DE3) assessed as association constant by surface plasmon resonance analysis
Bcl-2-related protein A1 (Homo sapiens), sequence (Q16548 whole entry, the tested form may be a part): as the sequence (Q16548 whole entry, looked up) above

[19] = system: U-937; assay: Induction of apoptosis in human U-937 cells assessed as necrotic cells at 40 uM measured after 4 hrs by Annexin PI staining based flow cytometry method (reference value: 0.00 %); assay type: functional
[20] = molecular target: T2, BCL2A11/BBC3 (Homo sapiens); assay: Inhibition of human BFL-1/PUMA protein-protein interaction in human Kasumi 1 cells assessed as decrease in PUMA protein level at 80 uM measured after 5 hrs by co-immunoprecipitation assay; assay type: cell-based
[21] = molecular target: Transcriptional enhancer factor TEF-4 (Homo sapiens, UniProt Q15562); assay: Displacement of FAM- labeled YAP1 peptide from TEAD2 (217 to 447 residues) (unknown origin) expressed in Escherichia coli BL21 (DE3) assessed as inhibition constant incubated for 1.5 hrs by fluorescence polarization-based competitive binding assay
Transcriptional enhancer factor TEF-4, sequence (Q15562 whole entry, the tested form may be a part): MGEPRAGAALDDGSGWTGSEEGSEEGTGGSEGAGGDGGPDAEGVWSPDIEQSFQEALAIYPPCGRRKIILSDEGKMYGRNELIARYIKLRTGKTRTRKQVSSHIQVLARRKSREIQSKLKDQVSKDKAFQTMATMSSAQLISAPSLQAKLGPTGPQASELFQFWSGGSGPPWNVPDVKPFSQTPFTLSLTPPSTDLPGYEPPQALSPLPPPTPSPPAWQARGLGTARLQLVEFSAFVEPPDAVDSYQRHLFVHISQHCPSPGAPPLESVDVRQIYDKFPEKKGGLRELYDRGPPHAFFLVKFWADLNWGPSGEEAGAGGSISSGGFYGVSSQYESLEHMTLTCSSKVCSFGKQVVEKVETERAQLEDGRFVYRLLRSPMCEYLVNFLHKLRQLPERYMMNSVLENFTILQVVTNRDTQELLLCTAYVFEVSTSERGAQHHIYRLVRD

[22] = system: U-937; assay: Induction of apoptosis in human U-937 cells assessed as early apoptotic cells at 60 uM measured after 4 hrs by Annexin PI staining based flow cytometry method (reference value: 1.95 %); assay type: functional
[23] = system: Kasumi 1; assay: Growth inhibition of human Kasumi 1 cells incubated for 4 days by WST assay; assay type: functional, cell-based; settings: Kasumi 1, 96 h
[24] = system: U-937; assay: Induction of apoptosis in human U-937 cells assessed as late apoptotic cells at 60 uM measured after 4 hrs by Annexin PI staining based flow cytometry method (reference value: 1.62 %); assay type: functional
[25] = system: RPMI-8226; assay: Upregulation of BFL-1protein expression in human RPMI-8226 cells by Western blotting analysis; assay type: functional, cell-based
[26] = system: U-937; assay: Induction of apoptosis in human U-937 cells assessed as late apoptotic cells at 10 uM measured after 4 hrs by Annexin PI staining based flow cytometry method (reference value: 1.62 %); assay type: functional
[27] = system: U-937; assay: Induction of apoptosis in human U-937 cells assessed as assessed as increase in PARP cleavage measured after 24 hrs by Western blot analysis; assay type: functional, cell-based; settings: DDE = dose-dependent effect
[28] = molecular target: E3 ubiquitin-protein ligase Mdm2 (Homo sapiens, UniProt Q00987); assay: Displacement of FAM- labeled PDI peptide from MDM2 (1 to 118 residues) (unknown origin) expressed in Escherichia coli BL21 (DE3) assessed as inhibition constant incubated for 1.5 hrs by fluorescence polarization-based competitive binding assay
E3 ubiquitin-protein ligase Mdm2, sequence (Q00987 whole entry, the tested form may be a part): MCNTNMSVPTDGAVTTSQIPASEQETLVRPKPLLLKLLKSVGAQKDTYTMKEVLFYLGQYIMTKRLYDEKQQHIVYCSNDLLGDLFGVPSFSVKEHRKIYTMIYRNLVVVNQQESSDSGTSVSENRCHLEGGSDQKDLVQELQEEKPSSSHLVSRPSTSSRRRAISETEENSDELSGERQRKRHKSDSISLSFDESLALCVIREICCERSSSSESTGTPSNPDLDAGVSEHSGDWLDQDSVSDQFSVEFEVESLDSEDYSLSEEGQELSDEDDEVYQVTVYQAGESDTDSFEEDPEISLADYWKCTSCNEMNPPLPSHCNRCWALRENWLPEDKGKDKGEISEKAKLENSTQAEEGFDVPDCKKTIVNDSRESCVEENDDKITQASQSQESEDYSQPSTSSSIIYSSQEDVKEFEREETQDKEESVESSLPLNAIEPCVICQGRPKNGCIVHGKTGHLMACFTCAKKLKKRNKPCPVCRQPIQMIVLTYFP

[29] = molecular target: T1, Bromodomain-containing protein 2; assay: Binding affinity to recombinant human BRD2 BD2 (349-460 residues) assessed as inhibition constant by fluorescence polarization assay
[30] = system: U-937; assay: Induction of apoptosis in human U-937 cells assessed as decrease in MCL-1 protein expression after 24 hrs by Western blot analysis; assay type: functional, cell-based; settings: DDE = dose-dependent effect
[31] = molecular target: Programmed cell death protein 1/Programmed cell death 1 ligand 1 (Homo sapiens, UniProt Q15116+Q9NZQ7); assay: Inhibition of biotinylated tagged PD-1 (unknown origin)/His tagged PD-L1 (unknown origin) protein-protein interaction assessed as inhibition constant incubated for 90 mins by AlphaLISA assay; assay type: protein-complex assay
Programmed cell death protein 1/Programmed cell death 1 ligand 1, sequence (Q15116 whole entry): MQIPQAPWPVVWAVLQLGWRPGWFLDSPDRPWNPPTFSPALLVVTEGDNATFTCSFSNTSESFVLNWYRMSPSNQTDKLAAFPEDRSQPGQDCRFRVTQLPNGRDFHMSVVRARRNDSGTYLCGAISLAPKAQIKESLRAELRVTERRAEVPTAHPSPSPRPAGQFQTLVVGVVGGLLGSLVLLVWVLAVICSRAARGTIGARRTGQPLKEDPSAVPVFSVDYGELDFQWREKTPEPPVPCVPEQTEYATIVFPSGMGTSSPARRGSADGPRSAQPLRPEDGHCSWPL
Programmed cell death protein 1/Programmed cell death 1 ligand 1, sequence (Q9NZQ7 whole entry): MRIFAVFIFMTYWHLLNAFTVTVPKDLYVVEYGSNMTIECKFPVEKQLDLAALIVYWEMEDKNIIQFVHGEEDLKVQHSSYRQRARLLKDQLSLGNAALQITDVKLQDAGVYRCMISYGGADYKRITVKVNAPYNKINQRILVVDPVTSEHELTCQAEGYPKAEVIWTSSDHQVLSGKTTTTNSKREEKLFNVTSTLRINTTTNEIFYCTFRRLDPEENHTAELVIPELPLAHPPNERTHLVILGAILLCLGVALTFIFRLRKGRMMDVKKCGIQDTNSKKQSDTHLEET

[32] = system: U-937; assay: Induction of apoptosis in human U-937 cells assessed as late apoptotic cells at 40 uM measured after 4 hrs by Annexin PI staining based flow cytometry method (reference value: 1.62 %); assay type: functional
[33] = system: Kasumi 1; assay: Induction of apoptosis in human Kasumi 1 cells overexpressing BFL-1 assessed as increase in cytochrome c level at 5 to 40 uM incubated for 3 hrs by immunoblotting analysis; assay type: functional, cell-based; settings: dose 5-40 µM
[34] = system: U-937; assay: Induction of apoptosis in human U-937 cells assessed as increase in cytochrome c level incubated for 3 hrs by immunoblotting analysis; assay type: functional, cell-based
[35] = system: RPMI-8226; assay: Growth inhibition of human RPMI-8226 cells incubated for 4 days by WST assay; assay type: functional, cell-based; settings: RPMI-8226, 96 h
[36] = system: MV4-11; assay: Growth inhibition of human MV4-11 cells incubated for 4 days by WST assay; assay type: functional, cell-based; settings: MV4-11, 96 h

IC50 [4]: 2.8 µM | Ki [5]: > 400 µM | IC50 [7]: 26.9 µM | Ki [9]: > 400 µM | fold change (FC) [11]: 21 | Activity [13]: Active | IC50 [14]: 7.7 µM | Ka [18]: 2.09 10^5/Ms | inhibition [20]: Active | Ki [21]: > 400 µM | Ki [28]: > 400 µM | Ki [29]: > 400 µM | IC50 [35]: 8.7 µM | IC50 [36]: 3.9 µM
Structure (SMILES): C=CC(=O)N1CCN(c2c3ccc(-c4cccc(F)c4)cc3nn2Cc2ccccc2)CC1
Ki [1]: 8.68 µM | Activity [2]: Active | Activity [3]: Active | Ki [6]: > 400 µM | Activity [8]: Active | Activity [10]: Dde | Activity [12]: 6.03% | Activity [15]: Active | Activity [16]: 4.05% | Activity [17]: Dde | Activity [19]: 7.22% | Activity [22]: 4.61% | IC50 [23]: 5.5 µM | Activity [24]: 21.52% | Activity [25]: Active | Activity [26]: 2.19% | Activity [27]: Dde | Activity [30]: Dde | Ki [31]: > 400 µM | Activity [32]: 20.83% | Activity [33]: Active | Activity [34]: Active
